Values quoted from earlier work, collected in article PMC5368910 (BMC Pharmacology & Toxicology, 2017).

Experiments:
[1] = system: Clostridium difficile-associated diarrhea (CDAD); details: stated for vancomycin and metronidazole treatments together; cited from earlier work
Text: Despite having a clinical response rate of ~73 to 85%, vancomycin and metronidazole treatments are associated with recurrent CDAD in up to 45% of patients. Aggressive vancomycin and metronidazole treatment is also associated with disruption of the intestinal microbiota and can promote colonization by vancomycin-resistant enterococci, highlighting the need for novel treatment options. An ideal agent for the treatment of CDAD should be associated with low levels of systemic absorption, resulting in high concentrations of the drug in the colon, combined with a narrow spect ...

C. difficile = system: C. difficile; set-up: method as in PMID 22183166, PMID 22391542; details: in vitro, C. difficile isolates; cited from earlier work

SMILES	recurrent CDAD, share of patients [1]	minimum inhibitory concentration at which 90% of the isolates were inhibited [MIC90] (C. difficile)
Cc1ncc([N+](=O)[O-])n1CCO [metronidazole]	up to 45%	–
CN[C@H](CC(C)C)C(=O)N[C@H]1C(=O)N[C@@H](CC(N)=O)C(=O)N[C@H]2C(=O)N[C@H]3C(=O)N[C@H](C(=O)N[C@H](C(=O)O)c4cc(O)cc(O)c4-c4cc3ccc4O)[C@H](O)c3ccc(c(Cl)c3)Oc3cc2cc(c3O[C@@H]2O[C@H](CO)[C@@H](O)[C@H](O)[C@H]2O[C@H]2C[C@](C)(N)[C@H](O)[C@H](C)O2)Oc2ccc(cc2Cl)[C@H]1O [vancomycin, reference compound]	up to 45%	2.0 µg/mL
